Measurements published in US20240277829A1, “HIV-1 VACCINATION AND SAMT-247 MICROBICIDE TO PREVENT HIV-1 INFECTION” (priority 2021, published 2024).
“Also recorded” adds a separate entry of the source.

Test system: SIVmac251
Assay: Weekly intravaginal SIVmac251 challenge of vaccinated and/or SAMT-247 gel treated female macaques
Format: in vivo, Rhesus macaques
Source text: Animals. Fifty female Indian Rhesus macaques obtained from the free-range breeding colony on Morgan Island, South Carolina, were used in this study. The macaques, aged 2 to 3 years at study initiation, were negative for SIV, simian retrovirus, and STLV, and were MHC typed before being divided into 4 groups: vaccine/microbicide group (20 macaques, 3 A*01 positive, 1 B*17 positive, 1 B*08 positive); vaccine only group (18 macaques, 3 A*01 positive, 1 B*17 positive); microbicide only group (6 macaques, 1 both A*01 positive and B*17 positive) and control group (6 macaques, 1 both A*01 positive and B*17 positive). Data on 37 historical naïve controls intravaginally challenged with the same dose and lot of SIVmac251 were added to the control group to increase statistical power. […]
Immunization and Challenge. […] Up to 14 challenges were administered until the macaques became SIV positive as assessed by droplet digital PCR. […]
Statistical analysis. […] Comparisons of differences between groups in the number of challenges before viral acquisition were assessed using the log-rank (Mantel-Cox) test of the discrete-time proportional hazards model. […] Correlation analyses were performed using the non-parametric Spearman rank correlation method with exact permutation and approximate two-tailed P values calculated for the number of pairs≤17 and >17, respectively. […]

CC(=O)Sc1ccccc1C(=O)NCCC(N)=O [SAMT-247]
risk of virus acquisition compared to controls (female macaques, up to 14 weekly intravaginal SIVmac251 exposures, SAMT-247 0.8% in HEC gel 4 h before each challenge): No differences in delayed acquisition; also recorded: did not significantly decrease; also recorded: had no effect | peak virus levels, SAMT-247 only group vs controls (infected animals, peak VL at week 2): no difference
